Data set [1] deals with HUVECs. Put plainly: In vitro tube formation assay. Type of data set: cell-based, human. To be noted: for IC50: Homo sapiens, HUVEC, HUVECs on Matrigel, 8 hours, VEGF-induced tube formation; for Selectivity Index (SI): ratio of the IC50 for HUVEC cell growth to the IC50 for tube formation. The method, then:
Matrigel (70 μl/well) was coated onto a 96-well plate and polymerized for 30 minutes at 37° C. under a 5% CO2 atmosphere. HUVECs (1.5×10^4 cells/well) and various concentrations of the compound were seeded onto each well of the Matrigel-coated 96-well plate. The cells were then incubated for 8 hours at 37° C. under a 5% CO2 atmosphere. The formation of endothelial cell tubular structures was visualized under an inverted microscope and photographed (Olympus Optical Co. Ltd., Tokyo, Japan). The inhibition rate of tube formation was determined using the following equation. tube formation inhibition rate (%)=[1−(average tube numbersample−average tube numberVEGF(−))/(average tube numberVEGF(+)−average tube numberVEGF(−))]×100 [Equation 1]
The IC50 value was calculated using nonlinear regression analysis using TableCurve 2D v5.01 software (Systat Software Inc., Richmond, Calif., USA).
(§1) The same experiment was carried out for sunitinib as a positive control.
The endothelial cell tubular structure formation assay was performed in the same manner as in the Experimental Example 1.

The subject of data set [2] is HUVECs. Put plainly: HUVEC cell growth assay (MTT). Type of data set: cell-based, human. To be noted: for IC50: Homo sapiens, HUVEC, MTT, 24 hours, in the presence of VEGF (50 ng/mL). Here is the method: Human umbilical vascular endothelial cells (HUVECs) were obtained from the ATCC (Rockville, Md.) and cultured in EGM-2 (Lonza, Walkersville, Md.) supplemented with 10% FBS at 37° C. under a 5% CO2 atmosphere.
Cell growth was assessed by MTT assay. HUVECs (8×10^3 cells/well) were seeded onto a 96-well plate with EGM-2 medium supplemented with 10% FBS for 24 hours. The next day, the culture medium was removed, and the cells were then incubated with serum-free medium for 12 hours. Following serum starvation, the cells were cultured in fresh 2% FBS/EBM-2 medium containing various concentrations of the test compound for 24 hours in the presence of VEGF (50 ng/mL). After the incubation, an MTT solution was added, and the plate was incubated for additional 4 hours. The formazan product was dissolved in DMSO, and the absorbance was detected at 570 nm using a VersaMax ELISA microplate reader (Molecular Devices, Sunnyvale, Calif.).
as §1

The test system of data set [3] is human umbilical vascular endothelial cell (HUVEC). Particulars: Korean Patent Application Publication No. 10-2012-0122705; cited from earlier work.

For orientation: IC50 means the point on the concentration scale where inhibition reaches its midpoint. As for `CCc1ccc2nc(C(c3ccc(OC)c(OC)c3)n3cc(CCN4CCCC4)nn3)sc2c1` (centres unmarked) [Compound I-5, 2-((3,4-dimethoxyphenyl)(4-(2-(pyrrolidin-1-yl)ethyl)-1H-1,2,3-triazol-1-yl)methyl)-6-ethylbenzo[d]thiazole], in data set [1], it took 2840 nM to reach half-maximal inhibition (IC50) and the “Selectivity Index (SI)” value is 24.8. Besides, the IC50 in data set [2] worked out at 70.3 µM.
For `CCCN(CCC)CCc1cn(C(c2ccc(OC)c(OC)c2)c2nc3ccc(CC)cc3s2)cn1` (centres unmarked) [Compound I-11, N-(2-(1-((3,4-dimethoxyphenyl)(6-ethylbenzo[d]thiazol-2-yl)methyl)-1H-imidazol-4-yl)ethyl)-N-propylpropan-1-amine], the IC50 was determined as 1820 nM in data set [1] and 38.6 µM in data set [2]. Besides, the “Selectivity Index (SI)” value in data set [1] is 21.18.
For `CCc1ccc2nc(C(c3ccc(OC)c(OC)c3)n3cc(CCNC4CCCC4)nn3)sc2c1` (centres unmarked) [Compound I-4, N-(2-(1-((3,4-dimethoxyphenyl)(6-ethylbenzo[d]thiazol-2-yl)methyl)-1H-1,2,3-triazol-4-yl)ethyl)cyclopentanamine] the same measures were 1020 nM, 19.4 µM and 19.0.
On to `CCN(CC)CCNC(=O)c1c(C)[nH]c(/C=C2\C(=O)Nc3ccc(F)cc32)c1C` [Sunitinib, sunitinib, reference compound], for which the IC50 is 546 nM in data set [1] and 9.92 µM in data set [2]. Further, the “Selectivity Index (SI)” value in data set [1] amounted to 18.2. Also, in data set [2] (sunitinib relative to compound (I-7)), the “higher inhibitory effect on the cell growth of HUVECs” value is recorded as 4.8 fold.
As to `CCc1ccc2nc(C(c3ccc(OC)c(OC)c3)n3cc(CCN(C)C)nn3)sc2c1` (centres unmarked) [Compound I-2, 2-(1-((3,4-dimethoxyphenyl)(6-ethylbenzo[d]thiazol-2-yl)methyl)-1H-1,2,3-triazol-4-yl)-N,N-dimethylethan-1-amine], the IC50 in data set [1] is 8270 nM; in data set [2] it was 93.5 µM. In addition, the “Selectivity Index (SI)” value in data set [1] turned out to be 11.3.
For `CCCNCCc1cn(C(c2ccc(OC)c(OC)c2)c2nc3ccc(CC)cc3s2)nn1` (centres unmarked) [Compound I-3, N-(2-(1-((3,4-dimethoxyphenyl)(6-ethylbenzo[d]thiazol-2-yl)methyl)-1H-1,2,3-triazol-4-yl)ethyl)propan-1-amine] the same measures were 1390 nM, 38.6 µM and 27.8.
The matching figures for `CCc1ccc2nc(C(c3ccc(OC)c(OC)c3)n3cnc(CCN4CCCCC4)c3)sc2c1` (centres unmarked) [Compound I-12, 2-((3,4-dimethoxyphenyl)(4-(2-(piperidin-1-yl)ethyl)-1H-imidazol-1-yl)methyl)-6-ethylbenzo[d]thiazole]: 3400 nM, 75.6 µM and 22.23.
With `CCc1ccc2nc(C(c3ccc(O)c(O)c3)n3cc(CCN(C)C)nn3)oc2c1` (centres unmarked) [Compound I-9, 4-((4-(2-(dimethylamino)ethyl)-1H-1,2,3-triazol-1-yl)(6-ethylbenzo[d]oxazol-2-yl)methyl)benzene-1,2-diol], the figures for the IC50 in data set [1] and in data set [2] were above 20000 nM and above 100 µM, respectively.
Consider `CCc1ccc2nc(C(c3ccc(OC)c(OC)c3)n3cc(CCCN4CCCCC4)nn3)sc2c1` (centres unmarked) [Compound I-16, 2-((3,4-dimethoxyphenyl)(4-(3-(piperidin-1-yl)propyl)-1H-1,2,3-triazol-1-yl)methyl)-6-ethylbenzo[d]thiazole], for which, in data set [1], inhibition was half-maximal at 2280 nM (IC50) and the “Selectivity Index (SI)” value came to 13.38. Moreover, the IC50 in data set [2] amounted to 30.5 µM.
The matching figures for `CCc1ccc2nc(C(c3ccc(OC)c(OC)c3)n3cnc(CCNC4CCCC4)c3)sc2c1` (centres unmarked) [Compound I-13, N-(2-(1-((3,4-dimethoxyphenyl)(6-ethylbenzo[d]thiazol-2-yl)methyl)-1H-imidazol-4-yl)ethyl)cyclopentanamine]: 1560 nM, 19.63 and 30.6 µM.
As to `CCc1ccc2nc(C(c3ccc(O)c(O)c3)n3cc(CCN(C)C)nn3)sc2c1` (centres unmarked) [Compound I-1, 4-((4-(2-(dimethylamino)ethyl)-1H-1,2,3-triazol-1-yl)(6-ethylbenzo[d]thiazol-2-yl)methyl)benzene-1,2-diol], the IC50 turned out to be 3040 nM in data set [1] and 37.3 µM in data set [2]. The “Selectivity Index (SI)” value in data set [1] was determined as 12.3.
Consider `CCc1ccc2nc(C(c3ccc(OC)c(OC)c3)n3cnc(CCN(C)C)c3)sc2c1` (centres unmarked) [Compound I-10, 2-(1-((3,4-dimethoxyphenyl)(6-ethylbenzo[d]thiazol-2-yl)methyl)-1H-imidazol-4-yl)-N,N-dimethylethan-1-amine], for which the IC50 in data set [1] is 4870 nM; in data set [2], above 100 µM.
Regarding `CCc1ccc2cc(C(c3ccc(O)c(O)c3)n3cc(CCN(C)C)nn3)oc2c1` (centres unmarked) [Compound I-8, 4-((4-(2-(dimethylamino)ethyl)-1H-1,2,3-triazol-1-yl)(6-ethylbenzofuran-2-yl)methyl)benzene-1,2-diol], in data set [1], the IC50 was 6100 nM and the “Selectivity Index (SI)” value was 3.61. Also, the IC50 in data set [2] was found to be 22 µM.
In the case of `CCc1ccc2nc(C(c3ccc(OC)c(OC)c3)n3cnc(CCN4CCCC4)c3)sc2c1` (centres unmarked) [Compound I-14, 2-((3,4-dimethoxyphenyl)(4-(2-(pyrrolidin-1-yl)ethyl)-1H-imidazol-1-yl)methyl)-6-ethylbenzo[d]thiazole], in data set [1], the IC50 amounted to 1530 nM and the “Selectivity Index (SI)” value turned out to be 62.56. The IC50 in data set [2] stood at 95.7 µM.
For `CCc1ccc2nc(C(c3ccc(OC)c(OC)c3)n3cc(CN4CCCCC4)nn3)sc2c1` (centres unmarked) [Compound I-15, 2-((3,4-dimethoxyphenyl)(4-(piperidin-1-ylmethyl)-1H-1,2,3-triazol-1-yl)methyl)-6-ethylbenzo[d]thiazole] the same measures were 2460 nM, above 40.65 and above 100 µM.
In the case of `CN(C)CCc1cn(C(c2ccc(O)c(O)c2)C2Oc3ccc(C=COS(=O)(=O)[O-])cc3O2)cn1.[Na+]` (centres unmarked) [wondonin, Wondonin], the “inhibition of human umbilical vascular endothelial cell (HUVEC)” value in data set [3] is listed as “does not inhibit”.
Take `CCc1ccc2nc(C(c3ccc(OC)c(OC)c3)n3cc(CCN4CCOCC4)nn3)sc2c1` (centres unmarked) [Compound I-6, 4-(2-(1-((3,4-dimethoxyphenyl)(6-ethylbenzo[d]thiazol-2-yl)methyl)-1H-1,2,3-triazol-4-yl)ethyl)morpholine]: the IC50 in data set [1] is 3930 nM; in data set [2] it was above 100 µM.

Values taken from patent US11168081B2, “Alkaloid derivative having angiogenesis inhibitory effect, and pharmaceutical composition containing same” (SEOUL NATIONAL UNIVERSITY R&DB FOUNDATION, priority 2017, dated 2021).
